According to patent US20250360215A1, “PHARMACEUTICAL COMBINATIONS AND METHODS FOR PREVENTING OR TREATING NEURODEGENERATIVE DISEASES” (National Health Research Institutes, priority 2022, published 2025):

Key:
[1] = tested on: dementia in human population; test: Population-based retrospective matched cohort analysis of dementia risk (Taiwan NHIRD database); type: in vivo
Procedure: To assess the potential for applying the combined drugs identified in Example 5 for therapeutic application in patients with dementia, a long-term follow-up retrospective analysis of human efficacy predictions was conducted by using National Health Research Institutes Database (NHRID) of Taiwan. Specifically, a […] matched cohort study was conducted to assess the effectiveness of the combined use of thyroid hormones and thiazolidinediones (TZDs) in reducing the risk of dementia, based on a dataset tracked 10,535 subjects with these two drugs for 10 years.

[2] = tested on: 3T3-L1 cells; test: Lipid droplet accumulation in 3T3-L1 adipocytes (3D imaging, HCS LipidTOX Red neutral lipid stain); type: cell-based, mouse; conditions: 1 μM peptide, 24 hours
Procedure: (§1) FIGS. 3A to 3E show the increased lipid deposition induced by Aβ42.
Scale bar: 20 μm. […] FIGS. 6H and 6I show the HDL/T-Chol (FIG. 6H) and glucose (FIG. 6I) levels in plasma of APP/PS1 mice with or without thyroxine and pioglitazone. ** p<0.01. […] Tubulin, GAPDH (glyceraldehyde-3-phosphate dehydrogenase), and ponceau S: internal controls, respectively.
The 3T3-L1 pre-adipocytes ([…], ATCC CL-173) were cultured in Dulbecco's modified Eagle medium (DMEM) (Invitrogen, USA). Cells were grown at 37° C. in a 5% CO2 humid atmosphere. The differentiation of 3T3-L1 cells into adipocyte-like cells was performed as follows. A confluence of 70% of 3T3-L1 cells was induced with MDI induction medium (containing 500 μM 3-isobutyl-1-methylxanthine (IBMX), 1 μg/mL insulin, and 1 μM dexamethasone) for 3 days, followed by changing the medium to differentiation medium (10% fetal bovine serum (FBS) in DMEM). The differentiation medium was refreshed every two days. Full differentiation was achieved by day 8.
To exclude the possibility that the visceral adiposity was a secondary event caused by factors released from other tissues/organs, 3T3-L1 adipocytes were incubated with Aβ40 or Aβ42 to determine whether and which Aβ peptides to be potent in causing lipid accumulation in adipocytes.

[3] = tested on: wild-type mice; test: Aβ42 intraperitoneal injection into wild-type mice (lipid deposition); type: in vivo, mouse; conditions: WT mice, Aβ42 30 μg intraperitoneally three times at an interval of 3 days; 7 days after last injection
Procedure: as §1
To assess whether the Aβ peptides were involved in lipid deposition in adipose tissues, Aβ42 (30 μg) was injected intraperitoneally into WT mice three times at an interval of 3 days.

[4] = tested on: 3T3-L1 cells; test: ApoE gene expression and LXR signaling protein levels in 3T3-L1 cells treated with Aβ peptides; type: cell-based, mouse
Procedure: FIGS. 4E and 4H show the result of Western blot of LXR signaling proteins in gWAT (FIG. 4E) or BAT (FIG. 4H) of wild-type (WT) mice and APP/PS1 (AD) mice (n=2). […] ABCA1: ATP binding cassette subfamily A member 1. PPAγ: peroxisome proliferator-activated receptor gamma. Actin, GAPDH (glyceraldehyde-3-phosphate dehydrogenase) and tubulin: internal controls, respectively.
The 3T3-L1 pre-adipocytes ([…], ATCC CL-173) were cultured in Dulbecco's modified Eagle medium (DMEM) (Invitrogen, USA). Cells were grown at 37° C. in a 5% CO2 humid atmosphere. The differentiation of 3T3-L1 cells into adipocyte-like cells was performed as follows. […]
Total RNAs from brain tissues or culture cells were extracted using the illustra RNAspin Mini RNA Isolation Kit (GE Healthcare Life Sciences) for reverse transcription with the High-Capacity cDNA Reverse Transcription Kits (ABI Applied Biosystems, USA) according to the manufacturer's instructions. The quantitative real-time reverse transcription-PCR analysis was performed using the Fast SYBR Green Master Mix (ABI Applied Biosystems, USA). Results were determined using respective standard curves calculations. […]

[5] = tested on: Aβ42-treated 3T3-L1 cells; test: UCP1 and PPARγ2 levels in MDI-induced, Aβ42-treated 3T3-L1 cells (screening of combination drugs); conditions: MDI-induced differentiated 3T3-L1 adipocytes treated with Aβ42 (FIG. 5)

| Compound | Incidence rate of dementia (per 1,000-person-year) ([1]; Group 3: TZD + T3 vs T3 only, matched cohort) | reduction of the risk of getting dementia ([1]; retrospective analysis, 10 years follow-up) [%] | lipid droplet accumulation in adipocytes [2] | body weight and gWAT mass [3] | protein levels of LXRα, PPARγ, ABCA1 and caveolin-1 ([4]; Western blot) | apoE gene expression ([4]; qRT-PCR) | PPARγ2 level [5] | UCP1 level [5] |
| --- | --- | --- | --- | --- | --- | --- | --- | --- |
| N[C@@H](Cc1cc(I)c(Oc2ccc(O)c(I)c2)c(I)c1)C(=O)O [T3 only, triiodothyronine] | 10.17 per 1,000-person-year | 21.7 |  |  |  |  |  |  |
| Aβ40: amyloid β peptide Aβ40, comparison peptide |  |  | not |  |  |  |  |  |
| Aβ42: amyloid β peptide Aβ42, used as inducer of lipid deposition |  |  | evidently stimulated | rapidly increased | markedly decreased | markedly upregulated | increased | decreased |
